Data on four compounds can be found in ChEMBL document CHEMBL1128713, “N-alkylated nitrogen-in-the-ring sugars: conformational basis of inhibition of glycosidases and HIV-1 replication” (J Med Chem, 1995).

SMILES strings stand for the structures. ≈ marks a conversion by molar mass, not a printed value.

What is called Ki is the dissociation constant of the complex between target and ligand, obtained from inhibition or displacement. Read a high Ki as lower affinity. In general, EC50 refers to the concentration that produces a half-maximal response. Lower therefore signals a more potent agent. What is called IC50 is the concentration that gives 50% inhibition. A higher IC50 goes with weaker potency in that assay.

Test [1] is described as follows: Competitive Inhibitory activity against Endoplasmic reticulum Alpha-Glucosidase II. Further details: species or system Rattus norvegicus.
For the next test, the system named is MT4. Kind of test: Concentration giving 50% inhibition of HIV-1 induced cytopathogenicity in MT-4 cells. The format is functional, cell-based, Homo sapiens. (In general: Protection from cytopathic effect is a common read-out in antiviral testing.)
Another test deals with T1, Mannosidase 2, alpha B1 (Rattus norvegicus, UniProt Q6P762).
T1 sequence (Q6P762 whole entry): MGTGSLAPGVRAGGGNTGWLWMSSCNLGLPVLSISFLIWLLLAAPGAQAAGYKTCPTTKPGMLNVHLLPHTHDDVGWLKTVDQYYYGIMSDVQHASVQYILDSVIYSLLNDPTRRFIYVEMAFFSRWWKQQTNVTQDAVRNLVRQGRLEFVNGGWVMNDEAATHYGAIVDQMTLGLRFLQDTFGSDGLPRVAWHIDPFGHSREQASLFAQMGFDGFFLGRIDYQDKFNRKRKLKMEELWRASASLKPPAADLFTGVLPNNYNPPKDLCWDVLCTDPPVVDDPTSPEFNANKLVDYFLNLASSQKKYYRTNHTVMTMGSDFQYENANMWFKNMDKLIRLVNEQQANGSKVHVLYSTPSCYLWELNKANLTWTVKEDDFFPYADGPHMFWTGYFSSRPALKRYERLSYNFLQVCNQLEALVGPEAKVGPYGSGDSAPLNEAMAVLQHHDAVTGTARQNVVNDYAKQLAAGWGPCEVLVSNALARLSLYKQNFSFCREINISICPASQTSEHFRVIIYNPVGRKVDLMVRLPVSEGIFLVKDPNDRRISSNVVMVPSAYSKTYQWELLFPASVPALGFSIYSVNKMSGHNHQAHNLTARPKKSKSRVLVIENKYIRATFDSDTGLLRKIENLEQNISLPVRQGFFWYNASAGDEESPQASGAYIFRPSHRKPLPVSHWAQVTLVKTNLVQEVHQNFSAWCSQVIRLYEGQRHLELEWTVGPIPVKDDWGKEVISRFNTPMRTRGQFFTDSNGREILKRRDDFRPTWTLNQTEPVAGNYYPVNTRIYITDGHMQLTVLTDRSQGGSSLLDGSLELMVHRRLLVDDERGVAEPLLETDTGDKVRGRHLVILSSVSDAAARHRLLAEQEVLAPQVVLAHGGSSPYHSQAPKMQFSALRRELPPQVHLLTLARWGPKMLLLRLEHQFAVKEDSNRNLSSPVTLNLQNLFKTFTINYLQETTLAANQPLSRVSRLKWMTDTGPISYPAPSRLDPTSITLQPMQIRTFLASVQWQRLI
The test is described as follows: Inhibition of lysosomal Alpha-mannosidase II in rat liver. The format is tissue-based.

Test [2] addresses Lactase/phlorizin hydrolase (Rattus norvegicus, UniProt Q02401). Kind of test: Inhibition of Glycosidases (lactase)in rat intestinal brush border membranes by D-glucose oxidase-peroxidase method. The format is cell membranes, Membrane.

Chain of Lactase/phlorizin hydrolase (Q02401 868-1928 limits assumed): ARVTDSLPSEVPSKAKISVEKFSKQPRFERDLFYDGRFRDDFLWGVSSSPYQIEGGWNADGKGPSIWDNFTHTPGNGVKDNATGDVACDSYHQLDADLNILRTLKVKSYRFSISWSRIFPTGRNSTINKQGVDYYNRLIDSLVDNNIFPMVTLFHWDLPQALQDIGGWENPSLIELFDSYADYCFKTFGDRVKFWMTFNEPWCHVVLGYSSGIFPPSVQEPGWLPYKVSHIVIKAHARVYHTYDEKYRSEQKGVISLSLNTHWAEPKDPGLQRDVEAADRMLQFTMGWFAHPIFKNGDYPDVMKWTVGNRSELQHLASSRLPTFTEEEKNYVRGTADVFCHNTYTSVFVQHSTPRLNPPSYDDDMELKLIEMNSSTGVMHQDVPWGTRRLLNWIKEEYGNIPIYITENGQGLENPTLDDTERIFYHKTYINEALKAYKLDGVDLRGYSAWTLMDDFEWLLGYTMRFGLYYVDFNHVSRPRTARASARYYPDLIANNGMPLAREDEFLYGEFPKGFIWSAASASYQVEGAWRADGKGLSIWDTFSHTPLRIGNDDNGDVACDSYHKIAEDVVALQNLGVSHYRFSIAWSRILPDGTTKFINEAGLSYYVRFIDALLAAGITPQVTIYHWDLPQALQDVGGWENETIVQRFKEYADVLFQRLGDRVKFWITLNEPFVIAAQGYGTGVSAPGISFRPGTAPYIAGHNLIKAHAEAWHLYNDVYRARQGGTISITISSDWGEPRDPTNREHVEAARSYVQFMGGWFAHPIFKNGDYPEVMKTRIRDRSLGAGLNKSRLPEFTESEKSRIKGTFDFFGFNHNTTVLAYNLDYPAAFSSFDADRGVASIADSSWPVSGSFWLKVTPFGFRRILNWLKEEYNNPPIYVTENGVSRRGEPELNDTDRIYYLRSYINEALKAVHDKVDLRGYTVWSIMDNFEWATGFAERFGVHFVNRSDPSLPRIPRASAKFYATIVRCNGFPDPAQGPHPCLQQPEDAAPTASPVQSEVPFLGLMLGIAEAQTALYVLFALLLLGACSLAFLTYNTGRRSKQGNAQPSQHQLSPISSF

`CCCCN1C[C@H](O)[C@@H](O)[C@H](O)[C@H]1CO` came in with a Ki in test [1] of 3.7 µM. In the test on MT4, this compound had an EC50 of 49 µg/mL (≈ 223 µM). In addition, the IC50 at Mannosidase 2, alpha B1 was less than 50 µM.

In the case of `CCCCN1C[C@@H](O)[C@H](O)[C@H]1CO`, affinity in test [1] was put at a Ki of 95 µM. Further, in the test on MT4, the EC50 was greater than 100 µg/mL. Besides, the IC50 against Mannosidase 2, alpha B1 is less than 50 µM; in test [2], less than 50 µM.

In test [1], `CN1C[C@H](O)[C@@H](O)[C@H](O)[C@H]1CO` came in with a Ki of 5.8 µM. Moreover, a half-maximal effect in the test on MT4 (EC50) was put at 69 µg/mL (≈ 389 µM). Besides, the IC50 is 1000 µM on Mannosidase 2, alpha B1 and 4.4 µM in test [2].

In test [1], `CN1C[C@@H](O)[C@H](O)[C@H]1CO` returned a Ki of 150 µM. Also, in the test with MT4, the EC50 is greater than 100 µg/mL. Further, the IC50 against Mannosidase 2, alpha B1 was 360 µM; in test [2], less than 50 µM.
